Assay results: patent publication EP4736876A1, “DRUG COMBINATION CONTAINING PD-L1 SMALL MOLECULE INHIBITOR AND USE THEREOF” (Beijing Maxinovel Pharmaceuticals Co., Ltd., priority 2023, dated 2025)

Assays:
[1] = system: 4T1 cells; assay: Orthotopic 4T1 breast cancer model with tumor resection, survival study (Example 3, paclitaxel combination); assay type: in vivo, BALB/c mice; conditions: day 38; Compound of Formula I 60 mg/kg PO BID; Paclitaxel 6 mg/kg IP Q2D; orthotopic tumors resected 13 days after inoculation; n=10
Experimental: Experimental animals: 50 BALB/c mice, female, 6 to 8 weeks old, weighing 18 to 20 g. Zhejiang Vital River Laboratory Animal Technology Co., Ltd., Tongxiang Branch (SCKX (Zhejiang) 2021-0006); Certificate No.: 20220728Abzz0600000694.
Drugs: Compound of Formula I, manufacturer: Pharmaron (Tianjin) Process Development and Manufacturing Co., Ltd., batch number: TJ-MAX-10181-A-2; Paclitaxel (6 mg/mL), manufacturer: Corden Pharma Latina S.P.A., batch number: 2D07013.
Murine 4T1 cells were grown adherently in vitro under culture conditions of RPMI-1640 medium supplemented with 10% heat-inactivated fetal bovine serum at 37°C with 5% CO2. Cells were passaged 2 to 3 times per week. When the cells were in the exponential growth phase, the cells were harvested, counted, and inoculated into the fourth fat pad on the left abdomen of BALB/c mice.
50 µL of 1 × 10^5 4T1 cell suspension was inoculated into the fourth fat pad on the left abdomen of BALB/c mice. […]
The experimental indicators were examined to determine whether tumor growth could be inhibited, delayed, or cured. Tumors were measured three times per week using a digital vernier caliper. The tumor volume was calculated using the formula: V = 0.5a × b^2, where a and b represent the long and short diameters of the tumor, respectively. […]

[2] = system: 4T1 hPD-L1 cells; assay: Pharmacodynamic study on mouse breast cancer 4T1 hPD-L1 model, subcutaneous (Example 2, celecoxib combination); assay type: in vivo, BALB/c mice; conditions: Compound of Formula I 120 mg/kg p.o. BID, Celecoxib 60 mg/kg p.o. BID
Experimental: Experimental animals: 100 BALB/c mice, female, 6 to 8 weeks old, weighing 18 to 21 g, purchased from: Shanghai Jihui Laboratory Animal Care Co., Ltd. (SCXK (Shanghai) 2020-0009; Certificate No.: 20220009001922).
Drugs: Compound of Formula I, manufacturer: Pharmaron (Tianjin) Process Development and Manufacturing Co., Ltd., batch number: TJ-MAX-10181-A-2; Celecoxib, manufacturer: Shanghai Yuanye Bio-Technology Co., Ltd., batch number: D11A6S2152.
Murine 4T1 hPD-L1 cells were grown adherently in vitro under culture conditions of RPMI-1640 medium supplemented with 10% heat-inactivated fetal bovine serum and 4 µg/mL Blasticidin (Beyotime/ST018-1mL), at 37°C with 5% CO2. Cells were passaged 2 to 3 times per week. When cells were in the exponential growth phase, the cells were harvested, counted, and inoculated subcutaneously on the right dorsal side of BALB/c mice.
100 µL of 1 × 10^6 4T1 hPD-L1 cell suspension was inoculated subcutaneously on the right dorsal side of BALB/c mice. On the seventh day after inoculation, stratified randomization was used to divide into 4 groups (10 mice per group) based on tumor volume and body weight. Administration began on the day of grouping. Table 5: Animal Experiment Grouping and Administration Regimen
The experimental indicators were examined to determine whether tumor growth could be inhibited, delayed, or cured. Tumors were measured three times per week using a digital vernier caliper. The tumor volume was calculated using the formula: V = 0.5a × b^2, where a and b represent the long and short diameters of the tumor, respectively. The tumor growth inhibition efficacy of compounds was calculated as: TGI (%) = [1 - (TVi - TV0) / (TVVi - TVV0)] × 100% (where TV0 represents the mean volume of the treatment group on day 0, TVV0 represents the mean volume of the control group on day 0; TVi represents the mean volume of the treatment group on day i, and TVVi represents the mean volume of the control group on day i).
If the animals' health condition continued to deteriorate, or the tumor volume exceeded 2,000 mm^3, or severe illness or pain occurred, euthanasia was required. In the following circumstances, the veterinarian was notified and euthanasia was performed: • (1) Significant emaciation with body weight loss exceeding 20%; • (2) Inability to freely access food and water; • (3) The experiment was terminated when the average tumor volume in the control group reached 2000 mm^3.
GraphPad Prism 8.0 software was used for plotting. Changes in tumor volume in mice were analyzed by Two-way ANOVA and compared with the vehicle control group using Dunnett's method, with P < 0.05 considered statistically significant.

Which results are given for `Cc1c(/C=C/c2cc(CN[C@@](C)(CO)C(=O)O)ccc2C(F)(F)F)cccc1-c1ccccc1` [Compound of Formula I]?
survival rate of mice [1]: 0%; TGI (%)/Day 21 ([2]; Day 21 vs vehicle control): 32.78%; Tumor Volume at the End of the Experiment/Day 21 ([2]; mean, n=10, Day 21): 921.91 mm^3; Tumor Volume at the Beginning of the Experiment/Day 0 ([2]; mean, n=10, baseline on day of grouping): 160.33 mm^3; Body Weight of Animals at the Beginning of the Experiment ([2]; mean, baseline): 23.04 g; Body Weight of Animals at the End of the Experiment ([2]; mean, end of experiment): 24.85 g; Relative Body Weight Change of Animals at the End of the Experiment ([2]; mean, end of experiment): 8.01%
